Laboratory results published in PMC5218480 (PLoS ONE, 2017).

Tested on: MV-4-11 cells
Assay: Gene expression microarray analysis (Affymetrix PrimeView) and GSEA
Type: cell-based, human
Design: RFU PODN (11730768_x_at) / Fold change /veh PODN (11730768_x_at) / RFU LINC00158 (11744669_a_at) / Fold change /veh LINC00158 (11744669_a_at) / RFU DUSP10 (11751237_a_at) / Fold change /veh DUSP10 (11751237_a_at) / RFU ID3 (11757404_x_at) / Fold change /veh ID3 (11757404_x_at) / RFU PLEKHG5 (11737974_s_at) / Fold change /veh PLEKHG5 (11737974_s_at) / RFU LRRC4B (11730491_at) / Fold change /veh LRRC4B (11730491_at) / RFU GIMAP4 (11747438_a_at) / Fold change /veh GIMAP4 (11747438_a_at) / RFU KRT8 (11758183_x_at) / Fold change /veh KRT8 (11758183_x_at) / RFU CNN1 (11734310_a_at) / Fold change /veh CNN1 (11734310_a_at) / RFU VPS37D (11726825_at) / Fold change /veh VPS37D (11726825_at) / RFU C10orf10 (11716522_x_at) / Fold change /veh C10orf10 (11716522_x_at) / RFU KIR2DL2 /// KIR2DL4 /// KIR2DL5A /// KIR2DL5B /// KIR2DS1 /// KIR2DS2 /// KIR2DS3 /// KIR2DS4 /// KIR3DL3 /// KIR3DL3 /// KIR3DS1 (11738374_at) / Fold change /veh KIR2DL2 /// KIR2DL4 /// KIR2DL5A /// KIR2DL5B /// KIR2DS1 /// KIR2DS2 /// KIR2DS3 /// KIR2DS4 /// KIR3DL3 /// KIR3DL3 /// KIR3DS1 (11738374_at) / RFU C1QL1 (11718748_at) / Fold change /veh C1QL1 (11718748_at) / RFU TMPRSS4 (11747572_a_at) / Fold change /veh TMPRSS4 (11747572_a_at) / RFU HAMP (11756126_x_at) / Fold change /veh HAMP (11756126_x_at) / RFU RNFT2 (11725882_a_at) / Fold change /veh RNFT2 (11725882_a_at) / RFU NR4A2 (11747474_a_at) / Fold change /veh NR4A2 (11747474_a_at) / RFU ABCC12 (11746883_a_at) / Fold change /veh ABCC12 (11746883_a_at) / RFU TMEM136 (11760407_x_at) / Fold change /veh TMEM136 (11760407_x_at) / RFU CLDN22 /// WWC2 (11732394_at) / Fold change /veh CLDN22 /// WWC2 (11732394_at) / RFU HLA-DPB1 (11760878_x_at) / Fold change /veh HLA-DPB1 (11760878_x_at) / RFU SPINT1 (11716480_a_at) / Fold change /veh SPINT1 (11716480_a_at) / RFU GAP43 (11754022_s_at) / Fold change /veh GAP43 (11754022_s_at) / RFU A4GNT (11735810_at) / Fold change /veh A4GNT (11735810_at) / RFU PRB3 (11715151_x_at) / Fold change /veh PRB3 (11715151_x_at) / RFU TUBB4B (11761932_at) / Fold change /veh TUBB4B (11761932_at) / RFU CAPN14 (11732068_a_at) / Fold change /veh CAPN14 (11732068_a_at) / RFU TMCC2 (11721928_a_at) / Fold change /veh TMCC2 (11721928_a_at) / RFU IRGQ (11745062_a_at) / Fold change /veh IRGQ (11745062_a_at) / RFU FAM174B (11720279_a_at) / Fold change /veh FAM174B (11720279_a_at) / RFU TMPRSS4 (11748680_a_at) / Fold change /veh TMPRSS4 (11748680_a_at) / RFU FAM212B (11763350_a_at) / Fold change /veh FAM212B (11763350_a_at) / RFU PLEKHG5 (11743358_a_at) / Fold change /veh PLEKHG5 (11743358_a_at) / RFU ZSCAN30 (11745921_a_at) / Fold change /veh ZSCAN30 (11745921_a_at) / RFU CMKLR1 (11741424_a_at) / Fold change /veh CMKLR1 (11741424_a_at) / RFU LOC101060620 /// MAPK8IP1 (11723275_at) / Fold change /veh LOC101060620 /// MAPK8IP1 (11723275_at) / RFU SPTSSB (11747773_x_at) / Fold change /veh SPTSSB (11747773_x_at) / RFU PRSS12 (11739890_at) / Fold change /veh PRSS12 (11739890_at) / RFU BIN1 (11741810_x_at) / Fold change /veh BIN1 (11741810_x_at) / RFU WNT11 (11732464_a_at) / Fold change /veh WNT11 (11732464_a_at) / RFU C10orf10 (11716521_a_at) / Fold change /veh C10orf10 (11716521_a_at) / RFU C5orf56 (11738089_at) / Fold change /veh C5orf56 (11738089_at) / RFU CYB561 (11721691_x_at) / Fold change /veh CYB561 (11721691_x_at) / RFU ANKRD19P (11752326_a_at) / Fold change /veh ANKRD19P (11752326_a_at) / RFU OR2T12 /// OR2T33 /// OR2T8 (11738714_s_at) / Fold change /veh OR2T12 /// OR2T33 /// OR2T8 (11738714_s_at) / RFU VCAN (11748164_a_at) / Fold change /veh VCAN (11748164_a_at) / RFU JSRP1 (11732532_at) / Fold change /veh JSRP1 (11732532_at) / RFU KRTAP10-11 (11738290_x_at) / Fold change /veh KRTAP10-11 (11738290_x_at) / RFU MYO3A (11730013_a_at) / Fold change /veh MYO3A (11730013_a_at) / RFU EBF3 (11725865_a_at) / Fold change /veh EBF3 (11725865_a_at) / RFU CAMK2N1 (11719241_x_at) / Fold change /veh CAMK2N1 (11719241_x_at) / RFU C5orf56 (11738088_a_at) / Fold change /veh C5orf56 (11738088_a_at) / RFU OLFML3 (11715873_a_at) / Fold change /veh OLFML3 (11715873_a_at) / RFU LOC100653217 /// NTM (11731650_a_at) / Fold change /veh LOC100653217 /// NTM (11731650_a_at) / RFU MAPK11 (11762145_a_at) / Fold change /veh MAPK11 (11762145_a_at) / RFU FIZ1 (11724087_x_at) / Fold change /veh FIZ1 (11724087_x_at) / RFU OASL (11726364_x_at) / Fold change /veh OASL (11726364_x_at) / RFU SOX15 (11748057_x_at) / Fold change /veh SOX15 (11748057_x_at) / RFU CD79A (11719716_a_at) / Fold change /veh CD79A (11719716_a_at) / RFU HIST1H1D (11736915_at) / Fold change /veh HIST1H1D (11736915_at) / RFU CASKIN2 (11723855_a_at) / Fold change /veh CASKIN2 (11723855_a_at) / RFU LOC730098 (11760151_x_at) / Fold change /veh LOC730098 (11760151_x_at) / RFU OR4N2 (11742367_at) / Fold change /veh OR4N2 (11742367_at) / RFU PRRT2 (11749266_a_at) / Fold change /veh PRRT2 (11749266_a_at) / RFU SNX32 (11753110_a_at) / Fold change /veh SNX32 (11753110_a_at) / RFU CDHR5 (11726645_a_at) / Fold change /veh CDHR5 (11726645_a_at) / RFU RCAN1 (11760418_a_at) / Fold change /veh RCAN1 (11760418_a_at) / RFU FAM167A (11723789_a_at) / Fold change /veh FAM167A (11723789_a_at) / RFU FAM26E (11764081_at) / Fold change /veh FAM26E (11764081_at) / RFU ISYNA1 (11749810_s_at) / Fold change /veh ISYNA1 (11749810_s_at) / RFU ACY1 (11761880_at) / Fold change /veh ACY1 (11761880_at) / RFU 11764098_at / Fold change /veh 11764098_at / RFU SAMD14 (11745864_x_at) / Fold change /veh SAMD14 (11745864_x_at) / RFU NPB (11741838_a_at) / Fold change /veh NPB (11741838_a_at) / RFU TMPRSS6 (11731388_a_at) / Fold change /veh TMPRSS6 (11731388_a_at) / RFU KRTAP10-2 (11738614_at) / Fold change /veh KRTAP10-2 (11738614_at) / RFU ARHGAP8 /// PRR5-ARHGAP8 (11727945_x_at) / Fold change /veh ARHGAP8 /// PRR5-ARHGAP8 (11727945_x_at) / RFU KRTAP5-7 /// NADSYN1 (11734609_at) / Fold change /veh KRTAP5-7 /// NADSYN1 (11734609_at) / RFU RASL12 (11751679_a_at) / Fold change /veh RASL12 (11751679_a_at) / RFU CDKN2B (11736163_a_at) / Fold change /veh CDKN2B (11736163_a_at) / RFU PRF1 (11729649_at) / Fold change /veh PRF1 (11729649_at) / RFU, ZNF638 /// ZNF638-IT1 / Fold change vs veh, ZNF638 /// ZNF638-IT1 / RFU, PANK3 / Fold change vs veh, PANK3 / RFU, SH3YL1 / Fold change vs veh, SH3YL1 / RFU, ZEB2 / Fold change vs veh, ZEB2 / RFU, NRIP1 / Fold change vs veh, NRIP1 / RFU, PTTG1IP / Fold change vs veh, PTTG1IP / RFU, CAPN2 / Fold change vs veh, CAPN2 / RFU, MED14 / Fold change vs veh, MED14 / RFU, SNORA58 / Fold change vs veh, SNORA58 / RFU, C1orf63 / Fold change vs veh, C1orf63 / RFU, LRRFIP1 / Fold change vs veh, LRRFIP1 / RFU, NDUFAF7 / Fold change vs veh, NDUFAF7 / RFU, SLC12A2 / Fold change vs veh, SLC12A2 / RFU, IBTK / Fold change vs veh, IBTK / RFU, ESF1 / Fold change vs veh, ESF1 / Fold change vs veh, TMEM50B / RFU, TAOK1 / Fold change vs veh, TAOK1 / RFU, ACBD3 / Fold change vs veh, ACBD3 / RFU, TMA16 / Fold change vs veh, TMA16 / RFU, RWDD3 / Fold change vs veh, RWDD3 / RFU, BCAT1 / Fold change vs veh, BCAT1 / RFU, EDEM3 / Fold change vs veh, EDEM3 / RFU, TMEM33 / Fold change vs veh, TMEM33 / RFU, WDR75 / Fold change vs veh, WDR75 / RFU, AHCTF1 / Fold change vs veh, AHCTF1 / RFU, TFRC / Fold change vs veh, TFRC / RFU, ZDHHC17 / Fold change vs veh, ZDHHC17 / RFU, NOM1 / Fold change vs veh, NOM1 / RFU, ARL8B / Fold change vs veh, ARL8B / RFU, ZBTB11 / Fold change vs veh, ZBTB11 / RFU, TAMM41 / Fold change vs veh, TAMM41 / RFU, KIAA1704 /// LOC100996395 / Fold change vs veh, KIAA1704 /// LOC100996395 / RFU, ING1 / Fold change vs veh, ING1 / RFU, TRMT61B / Fold change vs veh, TRMT61B / RFU, FUBP3 / Fold change vs veh, FUBP3 / RFU, TP53 / Fold change vs veh, TP53 / RFU, TNKS2 / Fold change vs veh, TNKS2 / RFU, ZFP14 / Fold change vs veh, ZFP14 / RFU, ACTR2 / Fold change vs veh, ACTR2 / RFU, PPP3R1 / Fold change vs veh, PPP3R1 / RFU, PIK3R1 / Fold change vs veh, PIK3R1 / RFU, HNRNPA1 / Fold change vs veh, HNRNPA1 / RFU, RNF170 / Fold change vs veh, RNF170 / RFU, ZNF28 / Fold change vs veh, ZNF28 / RFU, RNGTT / Fold change vs veh, RNGTT / RFU, OGT / Fold change vs veh, OGT / RFU, BRD1 / Fold change vs veh, BRD1 / RFU, MARS / Fold change vs veh, MARS / RFU, ZNF655 / Fold change vs veh, ZNF655 / RFU, FAHD1 / Fold change vs veh, FAHD1 / RFU, BDP1 / Fold change vs veh, BDP1 / RFU, LRRCC1 / Fold change vs veh, LRRCC1 / RFU, ARID1A / Fold change vs veh, ARID1A / RFU, ZNF146 / Fold change vs veh, ZNF146 / RFU, ZNF330 / Fold change vs veh, ZNF330 / RFU, GPN3 / Fold change vs veh, GPN3 / RFU, C9orf123 / Fold change vs veh, C9orf123 / RFU, N4BP2L2 / Fold change vs veh, N4BP2L2 / RFU, ARFIP1 / Fold change vs veh, ARFIP1 / RFU, FAM179B / Fold change vs veh, FAM179B / RFU, BCL10 / Fold change vs veh, BCL10 / RFU, UHRF1BP1L / Fold change vs veh, UHRF1BP1L / RFU, BET1 / Fold change vs veh, BET1 / RFU, CNOT2 / Fold change vs veh, CNOT2 / RFU, ZNF268 / Fold change vs veh, ZNF268 / Fold change vs veh, ZNF507 / RFU, DGCR2 / Fold change vs veh, DGCR2 / RFU, WDSUB1 / Fold change vs veh, WDSUB1 / Fold change vs veh, HSP90B1 /// MIR3652 / RFU, ADSS / Fold change vs veh, ADSS / RFU, GK / Fold change vs veh, GK / RFU, ZNF148 / Fold change vs veh, ZNF148 / RFU, TAF9 / Fold change vs veh, TAF9 / RFU, SLC1A5 / Fold change vs veh, SLC1A5 / RFU, SLMO2 / Fold change vs veh, SLMO2 / RFU, ABCC4 / Fold change vs veh, ABCC4 / RFU, LOC101060439 /// RAP1B / Fold change vs veh, LOC101060439 /// RAP1B / RFU, RFX7 / Fold change vs veh, RFX7 / RFU, GTPBP10 / Fold change vs veh, GTPBP10 / RFU, CNEP1R1 / Fold change vs veh, CNEP1R1 / RFU, BIVM-ERCC5 /// ERCC5 / Fold change vs veh, BIVM-ERCC5 /// ERCC5 / RFU, ILF3 / Fold change vs veh, ILF3 / RFU 11762660_at / Fold change /veh 11762660_at / RFU VCAN (11757783_s_at) / Fold change /veh VCAN (11757783_s_at) / RFU DDX43 (11728927_at) / Fold change /veh DDX43 (11728927_at) / RFU KRT8 (11758188_x_at) / Fold change /veh KRT8 (11758188_x_at) / RFU NKD1 (11759106_at) / Fold change /veh NKD1 (11759106_at) / RFU SRD5A1 (11742802_a_at) / Fold change /veh SRD5A1 (11742802_a_at) / RFU TPSAB1 /// TPSB2 (11721975_s_at) / Fold change /veh TPSAB1 /// TPSB2 (11721975_s_at) / RFU GSTM3 (11746129_a_at) / Fold change /veh GSTM3 (11746129_a_at) / RFU IL23R (11737362_x_at) / Fold change /veh IL23R (11737362_x_at) / RFU TMEM51 (11727254_a_at) / Fold change /veh TMEM51 (11727254_a_at) / RFU PIWIL2 (11732686_x_at) / Fold change /veh PIWIL2 (11732686_x_at) / RFU ORM1 (11744905_x_at) / Fold change /veh ORM1 (11744905_x_at) / RFU CCDC152 (11743942_at) / Fold change /veh CCDC152 (11743942_at) / RFU ECM1 (11717891_a_at) / Fold change /veh ECM1 (11717891_a_at) / RFU IL23R (11748794_a_at) / Fold change /veh IL23R (11748794_a_at) / RFU TNFAIP8L3 (11732012_x_at) / Fold change /veh TNFAIP8L3 (11732012_x_at) / RFU MBOAT4 (11741988_at) / Fold change /veh MBOAT4 (11741988_at) / RFU 11764193_at / Fold change /veh 11764193_at / RFU TMEM53 (11763286_at) / Fold change /veh TMEM53 (11763286_at) / RFU MAGEB2 (11727129_at) / Fold change /veh MAGEB2 (11727129_at) / RFU TMEM200A (11744735_a_at) / Fold change /veh TMEM200A (11744735_a_at) / RFU CCDC152 (11751479_a_at) / Fold change /veh CCDC152 (11751479_a_at) / RFU FAM211A (11726209_a_at) / Fold change /veh FAM211A (11726209_a_at) / RFU RGS16 (11746705_a_at) / Fold change /veh RGS16 (11746705_a_at) / RFU VCAN (11755009_s_at) / Fold change /veh VCAN (11755009_s_at) / RFU RHOB (11743442_s_at) / Fold change /veh RHOB (11743442_s_at) / RFU RGS16 (11720943_a_at) / Fold change /veh RGS16 (11720943_a_at) / RFU RGS16 (11720944_at) / Fold change /veh RGS16 (11720944_at) / RFU, VPS4B / Fold change vs veh, VPS4B / RFU, CREB1 / Fold change vs veh, CREB1 / RFU, DNAJC13 / Fold change vs veh, DNAJC13 / RFU, GNAQ / Fold change vs veh, GNAQ / RFU, CDK5R1 / Fold change vs veh, CDK5R1 / RFU, ZRANB3 / Fold change vs veh, ZRANB3 / RFU, CUL4A / Fold change vs veh, CUL4A / RFU, CCNY / Fold change vs veh, CCNY / RFU, UFL1 / Fold change vs veh, UFL1 / RFU, COG3 / Fold change vs veh, COG3 / RFU, DIAPH2 / Fold change vs veh, DIAPH2 / RFU, SKA2 / Fold change vs veh, SKA2 / RFU, AFF3 / Fold change vs veh, AFF3 / RFU, LMF1 / Fold change vs veh, LMF1 / RFU, IPO11 / Fold change vs veh, IPO11 / RFU, DFFB / Fold change vs veh, DFFB / RFU, FOXP1 / Fold change vs veh, FOXP1 / RFU, CARD8 / Fold change vs veh, CARD8 / RFU, STRN3 / Fold change vs veh, STRN3 / RFU, ADK / Fold change vs veh, ADK / RFU, RASSF2 / Fold change vs veh, RASSF2 / RFU, WIPF1 / Fold change vs veh, WIPF1 / RFU, LARP1B / Fold change vs veh, LARP1B / RFU, RASA1 / Fold change vs veh, RASA1 / RFU, RB1 / Fold change vs veh, RB1 / RFU, PPFIA1 / Fold change vs veh, PPFIA1 / RFU, MAT2A / Fold change vs veh, MAT2A / RFU, CCT5 / Fold change vs veh, CCT5 / RFU, WDR92 / Fold change vs veh, WDR92 / RFU, CUX1 / Fold change vs veh, CUX1 / RFU, TTC7A / Fold change vs veh, TTC7A / RFU, TMEM135 / Fold change vs veh, TMEM135 / RFU, DEPTOR / Fold change vs veh, DEPTOR / RFU, CPM / Fold change vs veh, CPM / RFU, DNAJB6 / Fold change vs veh, DNAJB6 / RFU, CACNA2D3 / Fold change vs veh, CACNA2D3 / RFU, DTX4 / Fold change vs veh, DTX4 / RFU, TFCP2 / Fold change vs veh, TFCP2 / RFU, GMCL1 /// GMCL1P1 / Fold change vs veh, GMCL1 /// GMCL1P1 / RFU, AEBP2 / Fold change vs veh, AEBP2 / RFU, SNHG1 /// SNORD22 /// SNORD25 /// SNORD26 /// SNORD27 /// SNORD28 /// SNORD29 /// SNORD31 / Fold change vs veh, SNHG1 /// SNORD22 /// SNORD25 /// SNORD26 /// SNORD27 /// SNORD28 /// SNORD29 /// SNORD31 / Fold change (Aza/veh), C12orf56 (ProbeSet 11735607_a_at) / Fold change (ACY-1035/veh), C12orf56 (ProbeSet 11735607_a_at) / Fold change (Aza/veh), FGFR1OP (ProbeSet 11751329_s_at) / Fold change (ACY-1035/veh), FGFR1OP (ProbeSet 11751329_s_at) / Fold change (Aza/veh), VPS36 (ProbeSet 11739960_a_at) / Fold change (ACY-1035/veh), VPS36 (ProbeSet 11739960_a_at) / RFU SYPL1 (11715823_x_at) / Fold change /veh SYPL1 (11715823_x_at) / RFU IGFBP7 (11715501_s_at) / Fold change /veh IGFBP7 (11715501_s_at) / RFU REEP3 (11722064_at) / Fold change /veh REEP3 (11722064_at) / RFU IGLL1 (11728026_x_at) / Fold change /veh IGLL1 (11728026_x_at): dose or concentration left out as unconfirmed
Conditions: MV-4-11 cells, 48 hours

Nc1ncn([C@@H]2O[C@H](CO)[C@@H](O)[C@H]2O)c(=O)n1 [azacitidine]
RFU OR2T12 /// OR2T33 /// OR2T8 (11738714_s_at): 6.40 RFU
